The conditions of data set [1]: low sustained systemic release; cited from earlier work.
For data set [2] the following is noted: in vivo; cited from earlier work.
The subject of data set [3] is Mycobacterium tuberculosis outside cells. Conditions: cited from earlier work.
Data set [4] deals with Mycobacterium tuberculosis bacteria in the monocytes. As to conditions: cited from earlier work.
The conditions of data set [5]: cited from earlier work.
For data set [6] the following is noted: cited from earlier work. This is another data set of the same source.
Data set [7] has as its system Methicillin resistant staphylococcus aureus. The data set is described as follows: Treatment of MRSA infected patients. Conditions: with broad spectrum antibiotics, insulin induced hypoglycemia and hyperbaric therapy.
For data set [8], the system named is plasma C reactive protein (CRP). As to conditions: smokers; cited from earlier work.
Data set [9] has as its system mycobacterium tuberculosis. The data set is described as follows: Breast cancer patient with pulmonary TB given high dose Vitamin C. It is filed as in vivo, human. The source says:
In the presence of above reductants, ferrous ions are produced by reduction of ferric ions (#2). One reductant known to drive the Fenton reaction is Vitamin C, also known as ascorbic acid. As a pro-oxidant, vitamin C can drive the Fenton reaction by reducing ferric ions to ferrous ions as shown in the above formula and FIG. 3. Most iron within the cell is bound within porphyrins and proteins, as ferric ions that are sparingly soluble and ferrous ions are very reactive as well as more soluble. To examine the role of iron concentration in vitamin C bactericidal activity, the concentrations of bound iron and reduced and oxidized free iron were measured in tuberculosis cultures treated with vitamin C. […] This increase in free iron levels was also the dose which peaked at day three. […] We treated a person has traveled to Southeast Asia and was diagnosed with left breast cancer. It was an early case with discrete lymph node metastasis. They have cough with blood tinged sputum, night sweats, and weight loss. […] By the time we made the TB diagnosis they were treated with high dose Vitamin C 10 to 25 grams in 500 ml normal saline every day for a total of 10 doses as an adjuvant therapy for cancer. They underwent local injection of anti-breast cancer chemotherapy therapeutic agents with insulin and local heat application with magnetic heat waves and hyperbaric therapy using soft air HBO chamber.
This person has traveled to Southeast Asia and was diagnosed with left breast cancer. It was an early case with discrete lymph node metastasis. They have cough with blood tinged sputum, night sweats, and weight loss. […] By the time we made the TB diagnosis they were treated with high dose Vitamin C 10 to 25 grams in 500 ml normal saline every day for a total of 10 doses as an adjuvant therapy for cancer. They underwent local injection of anti-breast cancer chemotherapy therapeutic agents with insulin and local heat application with magnetic heat waves and hyperbaric therapy using soft air HBO chamber.
After the lab came with mycobacterium tuberculosis, we wanted to see why the cough has gone with no sputum. […] We sent the sputum again, and came negative for mycobacterium tuberculosis after culture. This also made us to diagnose that the lesion in the lungs was not a metastatic breast cancer. The patient was treated with chemotherapy, local injection of breast mass and lymph nodes with high dose Vitamin C chemotherapy therapeutic agents. After completion of therapy, they were sent to surgery for the removal of the remaining lesion mass in the breast which had shrunk considerably, and axillary lymph node resection. They were seen 3 months after surgery. Their chest X ray was negative and so also sputum M. tuberculosis bacteria. They were free of cancer and tuberculosis.

The next data set has as its system tuberculosis cultures. Conditions: compared to the untreated cultures after three days; cited from earlier work.
A further data set deals with endothelial dysfunction. As to conditions: 2,000 mg/day for two weeks; cited from earlier work.
The subject of another data set is creatine kinase. As to conditions: compared with the placebo group; cited from earlier work.
Data set [10] deals with M. tuberculosis. As to conditions: flow cytometry; cited from earlier work. On the technique in general: In flow cytometry, cells or beads pass a laser one at a time.
In another data set the test system is tuberculosis bacteria. Conditions: treated for 3 days, versus untreated sample; cited from earlier work.
Data set [11] relates to M. tuberculosis. As to conditions: after 9 days; cited from earlier work.
The conditions of data set [12]: intravenous, doses from 5 to 50 grams or higher per day.
The conditions of data set [13]: cited from earlier work. The source holds these as a separate data set.
Data set [14] concerns radiation resistant breast cancer cells. Conditions: cells pre-loaded with iron after incubation with holotransferrin, cited from earlier work.
In another data set the test system is malaria. As to conditions: 3 grams (about 50 mg/kg) over a 3 to 5 day period; cited from earlier work.
In another data set the test system is tuberculosis infection. As to conditions: cited from earlier work; for effect on tuberculosis infection: alone at 20 mg/kg per day; for TB lesion in the spleen compared with pyrazinamide alone / bacteria in the lungs compared with pyrazinamide alone: simultaneous administration with pyrazinamide.
Data set [15] deals with TB bacteria. Conditions: cited from earlier work.
For data set [16] the following is noted: at atmospheric pressure; cited from earlier work.
For a further data set, the system named is pathogenic organism's. As to conditions: cited from earlier work.
The test system of data set [17] is TB bacteria. As to conditions: cited from earlier work. The source holds these as a separate data set.
Another data set concerns the target TB proteasome (Mycobacterium tuberculosis, UniProt P9WHT9). As to conditions: Lin et al 2009; cited from earlier work.
The subject of another data set is monkey and human cells. As to conditions: cited from earlier work.
In data set [18] the test system is M. tuberculosis. As to conditions: cited from earlier work.
Where [19] appears, read: 150 mg/kg per day, one month of treatment.

Like-named read-outs stand apart in the source and are kept apart here.

TB proteasome, sequence (P9WHT9 58-291): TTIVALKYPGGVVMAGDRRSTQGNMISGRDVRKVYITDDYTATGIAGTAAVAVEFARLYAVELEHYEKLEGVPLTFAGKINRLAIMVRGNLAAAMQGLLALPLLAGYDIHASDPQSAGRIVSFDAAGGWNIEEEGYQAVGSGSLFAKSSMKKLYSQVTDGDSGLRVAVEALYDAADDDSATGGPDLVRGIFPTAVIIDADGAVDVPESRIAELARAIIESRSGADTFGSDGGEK
TB proteasome, sequence (P9WHU1 whole entry partner): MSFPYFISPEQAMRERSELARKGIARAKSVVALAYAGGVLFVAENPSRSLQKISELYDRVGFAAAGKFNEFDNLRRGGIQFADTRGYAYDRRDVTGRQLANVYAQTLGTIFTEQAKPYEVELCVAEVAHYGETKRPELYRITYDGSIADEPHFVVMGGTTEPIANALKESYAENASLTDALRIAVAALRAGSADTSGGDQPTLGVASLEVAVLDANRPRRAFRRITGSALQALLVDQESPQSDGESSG

For `O=[N+]([O-])c1ccc(O)c([N+](=O)[O-])c1` [DNP, 2,4, dinitrophenol], in data set [1], the “increase of the therapeutic window” value is listed as “more than 500 fold”.

In the case of `CC[C@@H](CO)NCCN[C@@H](CC)CO` [Ethambutol], in [2], the “adverse effects stated in the text” value is “risk of developing optic neuritis”.

With `CCc1cc(C(N)=S)ccn1` [Ethionamide, 2-ethylthioiso-nicotinamide], the “adverse effects stated in the text” value in [2] was “neurotoxicity and fatal hepatotoxicity”.

For `O=C1[C@H](CC[C@H](O)c2ccc(F)cc2)[C@@H](c2ccc(O)cc2)N1c1ccc(F)cc1` [Ezetimibe, (3R,4S)-1-(4-fluorophenyl)-3-[(3S)-3-(4-fluorophenyl)-3-hydroxypropyl]-4-(4-hydroxyphenyl) zetidin-2-one], the “killing of Mycobacterium tuberculosis outside cells” value in [3] was “directly killing”. Moreover, the “survival and proliferation of Mycobacterium tuberculosis in the monocytes” value in [4] is “significantly inhibiting the survival and proliferation”.

On to `CO[C@H]1/C=C/O[C@@]2(C)Oc3c(C)c(O)c4c(O)c(c(/C=N/N5CCN(C)CC5)c(O)c4c3C2=O)NC(=O)/C(C)=C\C=C\[C@H](C)[C@H](O)[C@@H](C)[C@@H](O)[C@@H](C)[C@H](OC(C)=O)[C@@H]1C` [Rifampin, Rifampicin], for which the “concentration of the drug in the blood plasma” value in data set [5] (after increasing the dose) was “higher than expected”. Besides, the adverse effects result in data set [5] (increased dose versus standard dose) was “did not experience adverse effects”. For the same molecule, the “Plasma Concentrations (mean±standard deviation)” value in data set [6] (IV 300 mg, 30 min) was 8900 ± 2900 ng/mL; in data set [6] (IV 300 mg, 1 hr to 2 hr), 4900 ± 1300 ng/mL; in data set [6] (IV 300 mg, 4 hr) it was 2500 ± 1000 ng/mL; in [6] (IV 300 mg, 8 hr), 1000 ± 600 ng/mL; in data set [6] (IV 300 mg, 12 hr) it was less than 400 ng/mL; in [6] (IV 600 mg, 30 min), 17400 ± 5100 ng/mL. The “Plasma Concentrations (mean±standard deviation)” value in data set [6] (IV 600 mg, 1 hr to 2 hr) is 11700 ± 2800 ng/mL; in data set [6] (IV 600 mg, 4 hr) it was 6400 ± 1700 ng/mL; in [6] (IV 600 mg, 8 hr), 3500 ± 1400 ng/mL; in [6] (IV 600 mg, 12 hr) it was 1200 ng/mL. Also, the “ADVERSE EVENT/CONTRAINDICATION” value in data set [2] is listed as “Hepatitis, GI reactions”.

Turning to `CC(=O)Nc1ccc(/C=N/NC(N)=S)cc1` [Thiacetazone], the “ADVERSE EVENT/CONTRAINDICATION” value in [2] was “Severe skin rash among HIV +ve (not recommended)”.

For `O=C1O[C@H]([C@@H](O)CO)C(O)=C1O` [Vitamin C, L-ascorbic acid], in data set [7], the “outcome of MRSA infection” value is on record as “complete elimination of the infection”. In addition, in data set [8], the “reduction in plasma C reactive protein (CRP) concentrations” value was 24%. In data set [9] (10 to 25 grams IV every day, total of 10 doses), the outcome of tuberculosis is reported as “completely cured of tuberculosis”. The cough entry in data set [9] (by second week) was “completely disappeared”. The “sputum for mycobacterium tuberculosis after culture” value in data set [9] (repeat sputum after treatment) is listed as “negative”. Further, the “chest X ray” value in data set [9] (third week) is “disappearance of the lesion”. Moreover, in the data set with tuberculosis cultures, the “extracellular free iron concentrations” value is listed as “nearly four-fold higher”. For the same molecule, in the data set on endothelial dysfunction, the endothelial dysfunction entry is recorded as “reversed endothelial dysfunction”. The “release of creatine kinase, an indicator of muscle damage” value in the data set with creatine kinase is “inhibits the release of creatine kinase”. Also, in the data set with M. tuberculosis [10], the “increase in total ROS” value is “Up to threefold”. For the same molecule, the “intracellular levels of ferrous ions” value in the data set on tuberculosis bacteria was “up to ten times higher”. Besides, in the data set with M. tuberculosis [11], the “DNA damage relative to the untreated culture or culture treated with Vitamin E” value is listed as “tenfold higher” and the “ROS induced DNA damage” value is 17-25%. In addition, the safety and tolerability result in [12] is “safe and well-tolerated”. Also, in [13] (IV infusion up to 50 grams, cancer patients), the peak plasma concentration is given as 13.4 mM. Also, the peak plasma concentrations in [13] (maximum tolerated dose of 3 g every 4 hours taken orally) is on record as 0.22 mM.

As for `C[C@@H]1CC[C@H]2[C@@H](C)C(=O)O[C@@H]3O[C@@]4(C)CC[C@@H]1[C@]32OO4` [artemisinin], the cancer cell killing in data set [14] (8 hours) is reported as 75%; in [14] (within 24 hours), approximately 100%. Moreover, the resistance and toxicity entry in the data set with malaria is listed as “no resistance nor did toxicity”.

Regarding `CC(=O)Oc1ccccc1C(=O)O` [aspirin, Acetylsalicylic acid], in the data set with tuberculosis infection, the “effect on tuberculosis infection” value is recorded as “little effect”, the “TB lesion in the spleen compared with pyrazinamide alone” value was “further decrease” and the “bacteria in the lungs compared with pyrazinamide alone” value is recorded as “statistically significant fewer bacteria”.

Regarding `N[C@@H](CS)C(=O)O` [cysteine], the “intracellular levels of ferrous ions” value in the data set on tuberculosis bacteria was “up to ten times higher”.

Take `CC(C)Cc1ccc(C(C)C(=O)O)cc1` (centres unmarked) [ibuprofen]: in the data set with tuberculosis infection, the “effect on tuberculosis infection” value is listed as “little effect”, the “TB lesion in the spleen compared with pyrazinamide alone” value was “further decrease” and the “bacteria in the lungs compared with pyrazinamide alone” value is on record as “lower unit counts”. In addition, the “number of TB bacteria detected in the organs” value in the data set on TB bacteria [15] (mouse, in vivo) was “reduced the number of TB bacteria detected in the organs”. In addition, the survival result in the data set with TB bacteria [15] (versus mice not treated with ibuprofen) is on record as “lived longer”.

As for `O=[O+][O-]` [ozone], the “time to break down from O3 to O2+O1” value in data set [16] is not above 20 min. Besides, the “molecules of chlorine equal to one molecule of ozone” value with pathogenic organism's is 3000-10,000 molecules. In addition, the “speed of killing pathogenic organisms” value in the data set on pathogenic organism's (compared with chlorine) is on record as 3500 times faster.

For `NC(=O)c1cnccn1` [pyrazinamide, Pyrazinamide], in the data set on tuberculosis infection (setting [19]), the “reduction in the lung compared with the control” value was “about 1.5 log10 cfu” and the “reduction in the spleen compared with the control” value is on record as approximately 2 log10 cfu. Besides, in data set [2], the “ADVERSE EVENT/CONTRAINDICATION” value is “Hepatitis”.

Consider oxathiazol-2-one, for which, in the data set with TB bacteria [17], the “effect on TB bacteria” value is “killed the TB bacteria”. In addition, the “inhibition of the TB proteasome relative to the human proteasome” value on TB proteasome is recorded as “about 1,000 times”. Moreover, the “harm to mammalian cells” value with monkey and human cells was “did not appear to harm mammalian cells”.

B1: IFN-Y^− 1b: recombinant interferon gamma 1b, given nebulized (protein, UniProt P01579 24-161, looked up)
Interferon gamma: QDPYVKEAENLKKYFNAGHSDVADNGTLFLGILKNWKEESDRKIMQSQIVSFYFKLFKNFKDDQSIQKSVETIKEDMNVKFFNSNKKKRDDFEKLTNYSVTDLNVQRKAIHELIQVMAELSPAAKTGKRKRSQMLFRG
For B1, in the data set on M. tuberculosis [18] (10 TB patients, one month of nebulized therapy), the IFN gamma signaling result is “enhanced IFN-Y^− signaling”. Further, the “clearance of M. tuberculosis bacteria from the sputum” value in the data set on M. tuberculosis [18] (nebulized, added to DOTS, randomized controlled trial) was “more rapid clearance”. Further, in the data set with M. tuberculosis [18] (open-label, nebulized, 5 patients with MDR-TB, after 1 month), the sputum result is “clearing of the sputum”.

Source of the values: US20160074480A1, “INNOVATIVE METHODS OF TREATMENTING TUBERCULOSIS” (priority 2015, published 2016).
